The values that follow come from patent US9475842B2, “Hexadepsipeptide analogues as anticancer compounds” (PIRAMAL ENTERPRISES LIMITED, priority 2012, dated 2016).

Experiment [1] relates to HeLa cancer cells. Description: Detection of FITC Annexin V apoptosis by flow cytometry. The following applies: for cells positive for annexin V staining (M2): HeLa cells, 12 hrs. Type of experiment: cell-based, human. The text has this: The annexin V assay, a classical technique for detecting apoptosis, is the most commonly used method for detecting apoptosis by flow cytometry. One of the earliest features of apoptosis is the translocation of phosphatidylserine from the inner to the outer leaflet of the plasma membrane, thereby exposing phosphatidylserine to the external environment.
Annexin V (cat. no. 556420, BD Biosciences, USA) binds to phosphatidylserine exposed on the cell surface and identifies cells at an earlier stage of apoptosis. • a) HeLa cancer cells [referred to in step 1 of example 16] were seeded at a density of 0.5×10^6 cells/2000 μL well, in a tissue culture grade […] and allowed them to recover for 12 hrs in a humidified 5±0.2% CO2 incubator at 37±0.5° C. • b) After 12 hrs, 5 μL of 200× (200 times higher than required concentration is represented as 200×) compound of Formula (1a) dissolved in DMSO [step 2, example 16] was added to above tissue culture plate seeded with HeLa cancer cells. The final test concentration of the compound of Formula (1a) was 0.0003 μM, 0.003 μM and 0.01 μM. […] The population present in M1 and M2 were determined using FACS analysis.

Experiment [2] relates to MiaPaca2 (Pancreatic Cancer). Description: Monolayer assay (CCK-8 cytotoxicity). Type of experiment: cell-based. The following applies: Homo sapiens, MIA PaCa-2, MiaPaca 2, Pancreatic, 24 hrs exposure. On the procedure: The assays were designed as in the reference, BMC Cancer, 2010, 10, 610, 1-11; the disclosure of which is incorporated by reference for the teaching of the assay.
Human tumour cell lines: Panc-1 (Pancreatic Cancer), HCT 116 (Colorectal Cancer), ACHN (Renal Cell Carcinoma), Calu-1 (Lung Carcinoma), MiaPaca2 (Pancreatic Cancer), FADU (Head and Neck Cancer), PC3 (prostate Cancer), G361 (Melanoma), MDA-MB435S (Melanoma), HeLa (Cervical Cancer) were grown in Minimal Essential Media with Eagle's Basal Salts (MEM-EBS) obtained from AMIMED (BioConcept-Switzerland). Tumour cell lines: MDA-MB231 (Breast Cancer), JURKAT (T cell leukaemia), H460 (Small Cell Lung Cancer) were cultured in RPMI 1640 (AMIMED, BioConcept, Switzerland) medium. All tumour cell lines were supplemented with 10% Foetal Bovine Serum (FBS) (GIBCO), 1% Penicillin/Streptomycin (Sigma) and 1% Anti-Anti (GIBCO) and grown in T-175 tissue culture flasks (Nunc). MCF-10A, a non-tumourigenic cell line, was cultured in Mammary Epithelial Basal Medium (MEBM) with all standard additions (Lonza, Catalog. No. CC-3150). All cells were grown in 5% CO2 incubator at 37° C. Cells were passaged at 80-90% confluence. […]
Compound of Formula (1a) [described in example 7] was dissolved in DMSO to give a required stock solution of 20 mM. […] Each concentration was evaluated in triplicate. […]

By IC50 is commonly meant the concentration needed to halve the response being measured. For `CC(C)CC1CCC(O)(C(C)(O)C(=O)NC2C(=O)N3NCCCC3C(=O)N(O)C(C)C(=O)NCC(=O)N3NCCCC3C(=O)N(O)C(C)C(=O)OC2C(C)C)OC1C` (centres unmarked) [Formula (1a), N-(6,18-dihydroxy-22-isopropyl-7,19-dimethyl-5,8,11,17,20,24-hexaoxotetracosa hydrodipyridazino[6,1-f:6′,1′-o][1,4,7,10,13,16]oxapentaazacyclononadecin-23-yl)-2-hydroxy-2-(2-hydroxy-5-isobutyl-6-methyltetrahydro-2H-pyran-2-yl)propanamide], the “induction of apoptosis (in words)” value in experiment [1] (HeLa cancer cells, conclusion) is on record as “induces cell death through apoptosis”. The “cells positive for annexin V staining (M2)” value in experiment [1] (0.0003 μM) is listed as 33.80%; in experiment [1] (0.003 μM) it was 40.27%; in experiment [1] (0.01 μM), 59.05%. For the same compound, 25.3 ± 4.6 nM corresponded to half-maximal inhibition in experiment [2] (IC50).
